Laboratory results published in paper PMC12207590, “Substrate Specificity of the Organic Cation Transporters MATE1 and MATE2K and Functional Overlap with OCT1 and OCT2” (Journal of Medicinal Chemistry, 2025).
Where two headings read alike, the source gives them in different places.

Assays:
MATE2K = MATE2K (Homo sapiens, UniProt Q86VL8); assay: Uptake ratio in MATE2K-overexpressing HEK293 cells vs empty vector (2.5 μM, 1 min, HPLC-MS/MS); assay type: cell-based; conditions: for MATE2K ratio in this study: Table S1
Chain of MATE2K (Q86VL8 1-566 isoform Q86VL8-3): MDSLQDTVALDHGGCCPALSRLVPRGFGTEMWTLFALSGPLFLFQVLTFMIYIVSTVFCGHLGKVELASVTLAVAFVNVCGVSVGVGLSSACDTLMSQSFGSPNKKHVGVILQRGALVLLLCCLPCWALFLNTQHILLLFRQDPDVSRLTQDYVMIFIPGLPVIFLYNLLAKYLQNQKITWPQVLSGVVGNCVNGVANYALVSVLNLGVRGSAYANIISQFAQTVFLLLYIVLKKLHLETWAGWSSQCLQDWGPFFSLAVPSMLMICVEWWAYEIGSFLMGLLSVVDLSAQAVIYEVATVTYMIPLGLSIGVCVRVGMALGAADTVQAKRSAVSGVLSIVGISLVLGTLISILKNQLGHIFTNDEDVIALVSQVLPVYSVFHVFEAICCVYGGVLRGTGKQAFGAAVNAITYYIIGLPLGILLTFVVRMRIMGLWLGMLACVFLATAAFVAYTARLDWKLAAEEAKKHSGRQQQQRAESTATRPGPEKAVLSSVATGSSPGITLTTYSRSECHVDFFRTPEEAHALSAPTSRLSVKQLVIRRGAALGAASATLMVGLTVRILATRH

MATE1 = target: T1, MATE1 (Homo sapiens, UniProt Q96FL8); assay: Uptake ratio in MATE1-overexpressing HEK293 cells vs empty vector (2.5 μM, 1 min, HPLC-MS/MS); assay type: cell-based; conditions: for MATE1 ratio in this study: Table S1
T1 sequence (Q96FL8 1-570): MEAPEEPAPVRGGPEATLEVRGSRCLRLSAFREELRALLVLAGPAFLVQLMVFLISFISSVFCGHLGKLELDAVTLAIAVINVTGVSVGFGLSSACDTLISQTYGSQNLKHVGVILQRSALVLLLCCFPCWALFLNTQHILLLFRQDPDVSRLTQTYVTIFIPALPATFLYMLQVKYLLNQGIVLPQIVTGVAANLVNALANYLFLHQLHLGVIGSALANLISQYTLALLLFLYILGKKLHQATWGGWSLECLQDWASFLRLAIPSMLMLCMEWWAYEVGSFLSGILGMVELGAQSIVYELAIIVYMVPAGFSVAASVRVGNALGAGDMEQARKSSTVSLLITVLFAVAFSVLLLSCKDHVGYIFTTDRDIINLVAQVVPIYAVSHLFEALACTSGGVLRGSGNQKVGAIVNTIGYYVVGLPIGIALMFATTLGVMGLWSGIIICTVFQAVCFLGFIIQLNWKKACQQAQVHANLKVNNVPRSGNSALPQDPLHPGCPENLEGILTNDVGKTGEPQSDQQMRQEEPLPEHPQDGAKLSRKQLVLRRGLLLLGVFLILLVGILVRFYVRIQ

[1] = fold uptake over empty vector, 2.5 μM, 1 min
[2] = uptake ratio MATE2K-overexpressing vs empty-vector HEK293 cells, 2.5 μM, 1 min, mean
[3] = uptake ratio MATE1-overexpressing vs empty-vector HEK293 cells, 2.5 μM, 1 min, mean
[4] = mean ratio of uptake in MATE2K-overexpressing HEK293 cells vs empty vector, 2.5 μM, 1 min
[5] = mean ratio of uptake in MATE1-overexpressing HEK293 cells vs empty vector, 2.5 μM, 1 min

Row | SMILES | MATE2K ratio (MATE2K; [1]) | MATE1 ratio (MATE1; [1]) | other results
1 | CNC(=O)c1cccnc1 [Methylnicotinamide, N-Methylnicotinamide] | 5.40 | 33.89 | MATE2K ratio in this study (MATE2K; 2.5 μM, 1 min): 5.40; MATE1 ratio in this study (MATE1; 2.5 μM, 1 min): 33.89
2 | C[C@](N)(Cc1ccc(O)c(O)c1)C(=O)O [Methyldopa] | 1.15 | 1.04 | 
3 | CNCc1ccc(CSCCN/C(=C/[N+](=O)[O-])NC)o1 [N-Desmethylranitidine] | 14.02 | 23.54 | 
4 | Cc1ncc(CO)c(C=O)c1O [Pyridoxal] | 1.14 | 0.97 | MATE2 (MATE2K; [2]): 1.14; MATE1 (MATE1; [3]): 0.97
5 | COc1ccc(CCNC[C@H](O)c2ccc(O)cc2)cc1OC [Denopamine (R), Denopamine] | 1.69 | 2.32 | 
6 | NCc1ccc(O)cc1 |  |  | MATE2K ratio (MATE2K): 1.09; MATE1 ratio (MATE1): 1.48
7 | CCOC(=O)C1=C[C@@H](OC(CC)CC)[C@H](NC(C)=O)[C@@H](N)C1 [Oseltamivir] | 1.04 | 1.18 | 
8 | COc1cc2c(cc1OC)CC(=O)N(CCCN(C)C[C@H]1Cc3cc(OC)c(OC)cc31)CC2 [Ivabradine] | 1.23 | 1.14 | 
9 | CC(C)(C)NCC(O)c1ccc(O)c(CO)c1 (stereo not drawn) [Salbutamol] | 3.73 | 7.94 | MATE2K ratio in this study (MATE2K; 2.5 μM, 1 min): 3.73; MATE2 (MATE2K; [2]): 3.73; MATE1 ratio in this study (MATE1; 2.5 μM, 1 min): 7.94; MATE1 (MATE1; [3]): 7.94
10 | CC[N+](CC)(CC)Cc1ccccc1 [Benzyltriethylammonium] | 4.52 | 25.63 | MATE2 (uptake ratio) (MATE2K; [4]): 4.52; MATE1 (uptake ratio) (MATE1; [5]): 25.63
11 | COC(=O)[C@H]1[C@H]2C[C@@H]3c4[nH]c5cc(OC)ccc5c4CCN3C[C@H]2C[C@@H](OC(=O)c2cc(OC)c(OC)c(OC)c2)[C@@H]1OC [Reserpine] | 1.08 | 1.61 | MATE2 (MATE2K; [2]): 1.08; MATE1 (MATE1; [3]): 1.61
12 | CC(C)(C)NCC(O)COc1cccc2c1CC(O)C(O)C2 (stereo not drawn) [Nadolol] | 10.12 | 9.41 | MATE2K ratio in this study (MATE2K; 2.5 μM, 1 min): 10.12; MATE1 ratio in this study (MATE1; 2.5 μM, 1 min): 9.41
13 | CC[N+](CC)(CC)CC [Tetraethylammonium] |  |  | MATE2 (MATE2K): 6.73; MATE1 (MATE1): 25.44
14 | CCCCC[C@H](O)/C=C/[C@@H]1[C@@H](C/C=C\CCCC(=O)O)[C@@H](O)C[C@H]1O [Prostaglandin F2alpha] | 0.92 | 1.41 | MATE2 (MATE2K; [2]): 0.92; MATE1 (MATE1; [3]): 1.41
15 | NC(N)=NCCCC[C@H](N)C(=O)O [Homoarginine] |  |  | MATE2K ratio (MATE2K): 0.97; MATE1 ratio (MATE1): 0.97
16 | CCNCC(O)c1cccc(O)c1 (stereo not drawn) [Etilefrine] | 2.04 | 9.81 | 
17 | O=C(C[S+]([O-])Cc1ccco1)NC/C=C\COc1cc(CN2CCCCC2)ccn1 (stereo not drawn) [Lafutidine] | 1.48 | 1.41 | 
18 | COc1ccccc1OCC(O)CN1CCN(CC(=O)Nc2c(C)cccc2C)CC1 (stereo not drawn) [Ranolazine] | 1.30 | 1.11 | MATE2 (MATE2K; [2]): 1.3; MATE1 (MATE1; [3]): 1.11
19 | COc1ccc(CCN)cc1O [4-Methoxy-m-tyramine] |  |  | MATE2 (uptake ratio) (MATE2K): 1.19; MATE2K ratio (MATE2K): 1.19; MATE1 (uptake ratio) (MATE1): 3.09; MATE1 ratio (MATE1): 3.09
20 | CC(C)NC[C@H](O)COc1ccc(O)cc1 [Prenalterol] | 1.62 | 5.01 | 
21 | N[C@@H](CCC(=O)O)C(=O)O [Glutamic acid (D), Glutamic acid] |  |  | MATE2K ratio (MATE2K): 0.99; MATE1 ratio (MATE1): 1.17
22 | CCCCCC(=O)OC(CC(=O)[O-])C[N+](C)(C)C (stereo not drawn) [Hexanoylcarnitine] | 1.01 | 1.02 | 
23 | CCc1cc2c(cc1CC)CC(NC[C@H](O)c1ccc(O)c3[nH]c(=O)ccc13)C2 [Indacaterol] | 1.88 | 1.98 | 
24 | CC(C)C[C@H](NC(=O)[C@H](Cc1ccccc1)NC(=O)c1cnccn1)B(O)O [Bortezomib] | 1.10 | 1.20 | MATE2 (uptake ratio) (MATE2K; [4]): 1.1; MATE1 (uptake ratio) (MATE1; [5]): 1.2
25 | COc1cc2c(cc1OC)-c1c(C)c3ccc(OC)c(OC)c3c[n+]1CC2 [Dehydrocorydaline] |  |  | MATE2K ratio (MATE2K): 2.85; MATE1 ratio (MATE1): 9.25
